# Measurements reported in patent publication US20030003088A1, “Human pancreatic pluripotential stem cell line” (Board of Trustees operating Michigan State University, priority 2001, published 2003).
# “Also recorded” adds a separate entry of the source.
# Key:
# [1] = test system: HPDE6c7 cells; assay: Assay (A): inhibition of forskolin-induced GJIC, Lucifer yellow dye transfer, PAH given at every medium change; type: cell-based, human; details: for GJIC, Average (% change over control at −30 min), −30 min / GJIC, Average (% change over control at −30 min), 0 hr / GJIC, Average (% change over control at −30 min), 24 hr / GJIC, Average (% change over control at −30 min), 48 hr / GJIC, Average (% change over control at −30 min), 72 hr: 70 μM PAH given at every medium change; for GJIC, Average (% change over control at −30 min), −30 min: at time of addition; for GJIC, Average (% change over control at −30 min), 0 hr / GJIC, Average (% change over control at −30 min), 24 hr / GJIC, Average (% change over control at −30 min), 48 hr / GJIC, Average (% change over control at −30 min), 72 hr: forskolin 5 μM; for inhibition of GJIC induced by forskolin: 70 μM, PAH at every medium change
# [2] = test system: HPDE6c7 cells; assay: Assay (B): inhibition of forskolin-induced GJIC, Lucifer yellow dye transfer, PAH given only at time −30 min; details: for GJIC, Average (% change over control at −30 min), −30 min / GJIC, Average (% change over control at −30 min), 0 hr / GJIC, Average (% change over control at −30 min), 24 hr / GJIC, Average (% change over control at −30 min), 48 hr / GJIC, Average (% change over control at −30 min), 72 hr: 70 μM PAH given at time −30 min only; for GJIC, Average (% change over control at −30 min), −30 min: at time of addition; for GJIC, Average (% change over control at −30 min), 0 hr / GJIC, Average (% change over control at −30 min), 24 hr / GJIC, Average (% change over control at −30 min), 48 hr / GJIC, Average (% change over control at −30 min), 72 hr: forskolin 5 μM
# [3] = test system: HPDE6c7 cells; assay: GJIC competence under c-AMP elevating agents, Lucifer yellow dye transfer; type: cell-based, human; details: in KBM, 48 hours
# Description: The ability of the HPDE6c7 cells to communicate via gap junctions under various growth conditions was measured using the lucifer yellow dye transfer method as developed by El-Fouly et al. (Exp. Cell Res. 168: 422-430 (1987)). Briefly, near confluent cultures of the cells grown as in Example 1 were subjected to the desired treatment, either growth in KBM or KBM containing c-AMP elevating agents such as forskolin or forskolin and 3-isobutyl-1-methylxanthine (IBMX), both from Sigma Chemical Co., St. Louis, Mo. Then, lucifer yellow was loaded into the cells by making two or three scrape lines in the monolayer with a sharp scalpel. […] Quantifying the extent of communication was done using an image analysis program.
# [4] = test system: insulin promoter in HPDE6c7 cells; assay: Insulin promoter activity, AdINSGFP (GFP under insulin promoter) infected cells; type: cell-based, human
# Description: To determine whether the insulin promoter in the HPDE6c7 cells is active, the cells were infected with adenovirus AdINSGFP, a virus vector that expresses the Green Fluorescence Protein (GFP) under the regulation of the insulin promoter.
# Nicotinamide is known to affect cell differentiation. Therefore, the effect of nicotinamide on the activity of the insulin promoter in HPDE6c7 cells was determined. The […] cells were plated on plastic cell culture dishes for two days. Then the cells were infected with about 50 pfu/cell AdINSGFP for one hour. Afterwards, the cells were washed and incubated for three days in KBM containing 10 mM nicotinamide.
# [5] = test system: HPDE6c7 cells; assay: Induction of insulin production / release into the media; type: cell-based, human; details: for synthesis and release of insulin / appearance of insulin in the media: preliminary data
# [6] = test system: HPDE6c7 cells; assay: Growth of cells in culture with growth factors; type: cell-based, human
molecule,measurement,setting,value
"Cc1cccc2cc3ccccc3cc12 [1-MeA, 1-methylanthracine]","GJIC, Average (% change over control at −30 min), −30 min",[1],100.00%
same,"GJIC, Average (% change over control at −30 min), 0 hr",[1],89.37%
same,"GJIC, Average (% change over control at −30 min), 24 hr",[1],92.24%
same,"GJIC, Average (% change over control at −30 min), 48 hr",[1],81.77%
same,"GJIC, Average (% change over control at −30 min), 72 hr",[1],212.39%
same,inhibition of GJIC induced by forskolin,[1],inhibited GJIC that had been induced by forskolin
same,"GJIC, Average (% change over control at −30 min), −30 min",[2],100.00%
same,"GJIC, Average (% change over control at −30 min), 0 hr",[2],77.04%
same,"GJIC, Average (% change over control at −30 min), 24 hr",[2],233.32%
same,"GJIC, Average (% change over control at −30 min), 48 hr",[2],246.93%
same,"GJIC, Average (% change over control at −30 min), 72 hr",[2],261.32%
same,lethal effects on the cells / cytotoxicity,"[2]; 70 μM, PAH at −30 min only",no lethal effects; also recorded: not cytotoxic
same,reversibility of the inhibition of GJIC,"[2]; 70 μM, PAH at −30 min only",reversible
"Cc1ccc2cc3ccccc3cc2c1 [2-MeA, 2-methylanthracine]","GJIC, Average (% change over control at −30 min), −30 min",[1],100.00%
same,"GJIC, Average (% change over control at −30 min), 0 hr",[1],102.06%
same,"GJIC, Average (% change over control at −30 min), 24 hr",[1],197.60%
same,"GJIC, Average (% change over control at −30 min), 48 hr",[1],227.15%
same,"GJIC, Average (% change over control at −30 min), 72 hr",[1],271.19%
same,inhibition of GJIC induced by forskolin,[1],did not
same,"GJIC, Average (% change over control at −30 min), −30 min",[2],100.00%
same,"GJIC, Average (% change over control at −30 min), 0 hr",[2],89.95%
same,"GJIC, Average (% change over control at −30 min), 24 hr",[2],265.70%
same,"GJIC, Average (% change over control at −30 min), 48 hr",[2],260.89%
same,"GJIC, Average (% change over control at −30 min), 72 hr",[2],260.89%
C=C[C@@]1(C)CC(=O)[C@]2(O)[C@@]3(C)[C@@H](O)CCC(C)(C)[C@@H]3[C@H](O)[C@H](OC(C)=O)[C@@]2(C)O1 [forskolin],increase in GJIC relative to complete keratinocyte serum-free medium (KSFM),[3],2.2 fold
NC(=O)c1cccnc1 [nicotinamide],activation of the insulin promoter (GFP expressing cells),"[4]; 10 mM in KBM, three days",induces a substantial number of cells to activate the insulin promoter
same,induction of insulin production,[5],induce the HPDE6c7 cells to produce insulin
same,synthesis and release of insulin / appearance of insulin in the media,[5],appear to synthesize and release insulin
cholera toxin,induction of insulin production,[5],induce the HPDE6c7 cells to produce insulin
hepatocyte growth factor: growth factor (mitogen),synthesis and release of insulin / appearance of insulin in the media,[5],appear to synthesize and release insulin
same,growth of the cells,[6],an increase in growth of the cells
sonic hedgehog,turning on the promoter for the insulin gene,[4],can turn on the promoter for the insulin gene
same,induction of insulin production,[5],induce the HPDE6c7 cells to produce insulin
"beta-cellulin: growth factor (mitogen) (protein, UniProt P35070 32-111, looked up) Betacellulin: DGNSTRSPETNGLLCGDPEENCAATTTQSKRKGHFSRCPKQYKHYCIKGRCRFVVAEQTPSCVCDEGYIGARCERVDLFY",growth of the cells,[6],an increase in growth of the cells
